Article PMC11521309, “A novel 4-aminoquinoline chemotype with multistage antimalarial activity and lack of cross-resistance with PfCRT and PfMDR1 mutants” (PLOS Pathogens, 2024)
Values joined by “and” are separate entries in the source; they are usually repeats but may differ in a detail not shown here. Equal entries are not always repeated. Where two headings read alike, the source gives them in different places.

Tests used:
[1] = test system: Hz formation in ABS P. falciparum 3D7 parasites; experiment: Cellular heme fractionation assay; assay type: cell-based, Plasmodium falciparum; conditions: for %Hb / %Heme / %Hemozoin / Hb Fe (fg/troph) / Heme Fe (fg/troph) / Hemozoin Fe (fg/troph) / Total Fe (fg/troph): rep 1-4 and Mean
Protocol: A heme fractionation assay was used to measure the inhibition of Hz formation in cultured ABS P. falciparum 3D7 parasites as previously described. […] Late trophozoites were harvested after 32 hours of incubation by lysing RBCs with 0.05% saponin followed by multiple washes with 1 × PBS (pH 7.5) to remove any residual traces of hemoglobin. The parasite pellet was resuspended in PBS and the total number of trophozoites isolated was quantified using flow cytometry. Contents of the trophozoite pellet were released by hypotonic lysis and sonication. After centrifugation, treatments with HEPES buffer (pH 7.4), sodium dodecyl sulfate, pyridine, and NaOH, allowed us to separate the fractions corresponding to the different heme species of interest. A microplate reader was employed to measure the UV-visible spectrum of each heme fraction as a Fe(III)heme-pyridine complex. Fractions of undigested hemoglobin, “free” heme, and Hz were quantified using a heme standard curve based on the mass of each heme-Fe species per mature trophozoite (fg/cell), obtained by dividing the total amount of each heme species by the corresponding number of parasites in that fraction as determined by flow cytometry. Statistical comparisons and analyses for trends employed Students’ t-tests (GraphPad Prism version 9).

[2] = test system: P. falciparum 3D7 ABS parasites; experiment: ABS parasite survival assay, 72 h, flow cytometry; assay type: cell-based; conditions: Plasmodium falciparum, 3D7, ABS parasites, N = 3; read-out: IC50 3D7
Protocol: (§1) P. falciparum ABS parasites were cultured at 3% hematocrit in human O^+ RBCs in RPMI-1640 media supplemented with 25 mM HEPES, 50 mg/L hypoxanthine, 2 mM L-glutamine, 0.21% sodium bicarbonate, 0.5% (w/v) AlbuMAXII (Invitrogen) and 10 μg/mL gentamycin. Culture flasks were kept in modular incubator chambers (Billups-Rothenberg) in a 5% O2, 5% CO2, and 90% N2 atmosphere at 37°C. Synchronized ring-stage parasites were obtained by two consecutive rounds of treatment with 5% D-sorbitol in 48-hour intervals. […] This was done by exposing cultures at 1% hematocrit and 0.3% parasitemia in 96-well plates in the presence of drugs in a two-fold 10 or 12-point serial dilution in duplicate along with drug-free controls. After a 72-hour incubation, parasite survival was assessed by flow cytometry on an iQue flow cytometer (Sartorius) using SYBR Green and MitoTracker Deep Red FM (Life Technologies) as nuclear stain and vital dye, respectively. Parasite survival was determined as a percentage relative to drug-free control. IC50 values were interpolated from log concentration versus response curves in Prism 9 (GraphPad Prism Software Inc.).

[3] = test system: P. falciparum Dd2 ABS parasites; experiment: ABS parasite survival assay, 72 h, flow cytometry; assay type: cell-based; conditions: Plasmodium falciparum, DD2, ABS parasites, N = 3; read-out: IC50 Dd2
Protocol: as §1

[4] = MTT cytotoxicity assay, 72 h; assay type: cell-based, monkey; conditions: monkey, MTT, 72 h, N = 3
Protocol: (§2) Human hepatoma (HepG2) and fibroblast-like monkey kidney cells (COS-7) were cultured in Dulbecco’s Modified Eagle Medium supplemented with 10% heat-inactivated fetal bovine serum and gentamycin (40 mg/L) at 37°C in a 5% CO2 atmosphere. Cytotoxicity of test compounds was measured by metabolic reduction of mitochondrial enzymes using the MTT assay (3-[4,5-dimethyl-thiazol-2-yl]-2,5-diphenyltetrazolium chloride). Cells were seeded at 10^5 cells/well in 96-well plates and incubated for 72 hours in the presence of a 2-fold 12-point serial dilution of drugs along with drug-free controls. After adding 15 μL of MTT (5 mg/mL) to the wells, plates were centrifuged at 317g for 5 minutes and the pellet was resuspended in isopropanol. Absorbance was measured at 570 nm (CLARIOStar, Labtech BMG). Cell viability was determined by formazan production, and was expressed as a percentage of untreated control wells.

COS-7 cells = experiment: MTT cytotoxicity assay, 72 h; assay type: cell-based, monkey
Protocol: as §2

[5] = MTT cytotoxicity assay, 72 h; assay type: cell-based, Human; conditions: human, MTT, 72 h, N = 3
Protocol: as §2

HepG2 cells = experiment: MTT cytotoxicity assay, 72 h; assay type: cell-based, Human
Protocol: as §2

[6] = 0.5–3.0 × IC50 vs untreated control

C[C@H]1Cc2c([nH]c3cc(Cl)c(F)cc23)[C@@]2(N1)C(=O)Nc1ccc(Cl)cc12 [KAE609, cipargamin]
%Hb ([1]; 0.5x): 3.6542% and 7.0007% and 6.1505% and 3.0130% | %Heme ([1]; 0.5x): 5.3042% and 5.9396% and 6.0562% and 6.0905% | %Hemozoin ([1]; 0.5x): 91.0416% and 87.0597% and 87.7934% and 90.8965% | Hb Fe (fg/troph) ([1]; 0.5x): 2.0363 fg/troph and 3.5589 fg/troph and 3.2475 fg/troph and 1.8499 fg/troph | Heme Fe (fg/troph) ([1]; 0.5x): 2.9557 fg/troph and 3.0195 fg/troph and 3.1977 fg/troph and 3.7394 fg/troph | Hemozoin Fe (fg/troph) ([1]; 0.5x): 50.7323 fg/troph and 44.2576 fg/troph and 46.3552 fg/troph and 55.8088 fg/troph | Total Fe (fg/troph) ([1]; 0.5x): 55.72 fg/troph and 50.84 fg/troph and 52.80 fg/troph and 61.40 fg/troph | effect on Hz levels [1, 6]: did not affect Hz formation | effect on undigested Hb [1, 6]: subtle yet significant increment in Hb levels observed under 2 and 2.5 × IC50 | %Hb ([1]; 1x): 5.1693% and 5.1920% and 5.0902% and 5.1212% | %Heme ([1]; 1x): 5.7735% and 5.8398% and 5.6460% and 5.8813% | %Hemozoin ([1]; 1x): 89.0573% and 88.9682% and 89.2638% and 88.9975% | Hb Fe (fg/troph) ([1]; 1x): 2.9437 fg/troph and 3.1428 fg/troph and 2.7576 fg/troph and 3.0371 fg/troph | Heme Fe (fg/troph) ([1]; 1x): 3.2877 fg/troph and 3.5349 fg/troph and 3.0588 fg/troph and 3.4878 fg/troph | Hemozoin Fe (fg/troph) ([1]; 1x): 50.7140 fg/troph and 53.8534 fg/troph and 48.3591 fg/troph and 52.7792 fg/troph | %Hb ([1]; 2x): 6.5332% and 6.7594% and 6.3629% and 6.9166% | %Heme ([1]; 2x): 5.4724% and 5.9940% and 4.2854% and 5.7076% | %Hemozoin ([1]; 2x): 87.9944% and 87.2465% and 89.3517% and 87.3758% | Hb Fe (fg/troph) ([1]; 2x): 4.0073 fg/troph and 4.4606 fg/troph and 3.7570 fg/troph and 4.7143 fg/troph | Heme Fe (fg/troph) ([1]; 2x): 3.3567 fg/troph and 3.9555 fg/troph and 2.5303 fg/troph and 3.8902 fg/troph | Hemozoin Fe (fg/troph) ([1]; 2x): 53.9742 fg/troph and 57.5747 fg/troph and 52.7581 fg/troph and 59.5545 fg/troph | Total Fe (fg/troph) ([1]; 2x): 61.34 fg/troph and 65.99 fg/troph and 59.05 fg/troph and 68.16 fg/troph | %Hb ([1]; 2.5x): 5.1788% and 7.1992% and 6.5284% and 7.3663% | %Heme ([1]; 2.5x): 6.6682% and 5.2565% and 5.5507% and 5.3264% | %Hemozoin ([1]; 2.5x): 88.1530% and 87.5443% and 87.9209% and 87.3073% | Hb Fe (fg/troph) ([1]; 2.5x): 2.9541 fg/troph and 4.0082 fg/troph and 4.1259 fg/troph and 4.4913 fg/troph | Heme Fe (fg/troph) ([1]; 2.5x): 3.8037 fg/troph and 2.9266 fg/troph and 3.5080 fg/troph and 3.2476 fg/troph | Hemozoin Fe (fg/troph) ([1]; 2.5x): 50.2849 fg/troph and 48.7406 fg/troph and 55.5658 fg/troph and 53.2328 fg/troph | Total Fe (fg/troph) ([1]; 2.5x): 57.04 fg/troph and 55.68 fg/troph and 63.20 fg/troph and 60.97 fg/troph | %Hb ([1]; 3x): 3.4597% and 3.9960% and 5.9128% and 5.9841% | %Heme ([1]; 3x): 6.5997% and 5.1160% and 5.1737% and 5.1489% | %Hemozoin ([1]; 3x): 89.9406% and 90.8880% and 88.9135% and 88.8671% | Heme Fe (fg/troph) ([1]; 3x): 3.6368 fg/troph and 3.2102 fg/troph and 3.3952 fg/troph and 3.4079 fg/troph | Hemozoin Fe (fg/troph) ([1]; 3x): 49.5627 fg/troph and 57.0293 fg/troph and 58.3496 fg/troph and 58.8192 fg/troph

COc1cccc(Nc2ccnc3ccccc23)c1 [LDT-617]
IC50 [2]: 1.8 ± 0.1 µM | IC50 [3]: 1.9 ± 0.2 µM | CC50 at 72 h ([4]; COS-7 cells): 51.2 ± 6.6 µM | SI (CC50 COS-7 / IC50 3D7) (COS-7 cells): 28.9 | CC50 at 72 h ([5]; HepG2 cells): 40.8 ± 12.2 µM | SI (CC50 HepG2 / IC50 3D7) (HepG2 cells): 23.1

COc1ccc(Nc2ccnc3ccccc23)cc1OC [LDT-618]
IC50 [2]: 1.8 ± 0.1 µM | IC50 [3]: 1.9 ± 0.2 µM | CC50 at 72 h ([4]; COS-7 cells): > 100 µM | SI (CC50 COS-7 / IC50 3D7) (COS-7 cells): > 56.5 | CC50 at 72 h ([5]; HepG2 cells): 29.8 ± 9.7 µM | SI (CC50 HepG2 / IC50 3D7) (HepG2 cells): 16.8

COc1cc(Nc2ccnc3ccc(Br)cc23)cc(OC)c1OC [LDT-619]
IC50 [2]: > 5 µM | IC50 [3]: > 5 µM | CC50 at 72 h ([4]; read-out: CC50 COS-7): 3.3 ± 0.3 µM | SI (CC50 COS-7 / IC50 3D7) (COS-7 cells): 0.7 | CC50 at 72 h ([5]; read-out: CC50 HepG2): 0.3 ± 0.04 µM | SI (CC50 HepG2 / IC50 3D7) (HepG2 cells): 0.1

CCOc1cc2nccc(Nc3cc(OC)c(OC)c(OC)c3)c2cc1OCC [LDT-620]
IC50 [2]: 0.4 ± 0.05 µM | IC50 [3]: 0.5 ± 0.1 µM | CC50 at 72 h ([4]; COS-7 cells): 2.6 ± 0.3 µM | SI (CC50 COS-7 / IC50 3D7) (COS-7 cells): 6.3 | CC50 at 72 h ([5]; HepG2 cells): 1.6 ± 0.1 µM | SI (CC50 HepG2 / IC50 3D7) (HepG2 cells): 3.8

COc1cc(Nc2ccnc3ccccc23)cc(OC)c1 [LDT-621]
IC50 [2]: 2.2 ± 0.1 µM | IC50 [3]: 2 ± 0.3 µM | CC50 at 72 h ([4]; COS-7 cells): 6.5 ± 4.2 µM | SI (CC50 COS-7 / IC50 3D7) (COS-7 cells): 2.8 | CC50 at 72 h ([5]; HepG2 cells): 0.5 ± 0.1 µM | SI (CC50 HepG2 / IC50 3D7) (HepG2 cells): 0.2
